Reference: patent US9834563B2 (Merck Sharp & Dohme Corp., priority 2013, dated 2017)

Columns and labels:
Human GPR40 [1] = target: T1, Human GPR40 (Homo sapiens, UniProt O14842); test: Inositol phosphate turnover (IP1) assay in HEK cells stably expressing human GPR40; format: cell-based; set-up: expressed in transfected cells; details: HEK cells stably expressing human GPR40, 3H-inositol labeling, 60 min compound incubation
Protocol: (§1) Human and mouse GPR40 stable cell-lines were generated in CHO cells stably expressing NFAT BLA (Beta-lactamase). A human GPR40 stable cell-line was generated in HEK cells stably expressing the aequorin expressing reporter. The expression plasmids were transfected using lipofectamine, LIFE TECHNOLOGIES (Carlsbad, Calif.), following manufacturer's instructions. Stable cell-lines were generated following drug selection.
The assay is performed in a 96-well format. HEK cells stably expressing human GPR40 are plated to be 60-80% confluent within 72 h. After 72 h, the plates are aspirated and the cells washed with inositol-free DMEM (ICN). The wash media is replaced with 150 μL of 3H-inositol labeling media (inositol-free media containing 0.4% human albumin or 0.4% mouse albumin, 1× pen/strep antibiotics, glutamine, 25 mM HEPES to which is added 3H-myo-inositol NEN #NET114A 1 mCi/mL, 25 Ci/mmol diluted 1:150 in loading media with a final specific radioactivity of 1 μCi/150 μL). Alternatively, the human and mouse albumin can be added after the overnight labeling step before the addition of LiCl.
The assay is typically run the next day after 18 h labeling. On the day of the assay, 5 μL of 300 mM LiCl is added to all wells and incubated at 37 degrees for 20 min. 0.75 μL of 200× compounds are added and incubated with the cells for 60 min at 37 degrees. The media is then aspirated off and the assay terminated with the addition of 60 μL 10 mM formic acid. The cells are lysed for 60 min at room temperature. 15-30 μL of lysate is mixed with 70 μL/1 mg YSi SPA beads AMERSHAM (United Kingdom) in clear bottom Isoplates. The plates are shaken for 2 h at room temperature. Beads are allowed to settle and the plates are counted in the Wallac MICROBETA instrument. The activities of the compounds in the examples have EC50 (effective concentration of compound to afford 50% of the maximum observed […]) values listed in Table I.

Human GPR40 [2] = target: T1, Human GPR40; test: FLIPR assay: agonist-induced calcium mobilization in GPR40/CHO NFAT BLA cells; format: cell-based; set-up: expressed in transfected cells; host or cells: CHO cells stably expressing NFAT BLA (beta-lactamase)
Excerpt: as §1
FLIPR (Fluorimetric Imaging Plate Reader, Molecular Devices) assays were performed to measure agonist-induced calcium mobilization of the stable clones. For the FLIPR assay, one day before assay, GPR40/CHO NFAT BLA cells were seeded into black-wall-clear-bottom 384-well plates (Costar) at 1.4×10e4 cells/20 μL medium/well. The cells were incubated with 20 μl/well of the assay buffer (HBSS, 0.1% BSA, 20 mM HEPES, 2.5 mM probenecid, pH 7.4) containing 8 μM fluo-4, AM, 0.08% pluronic acid at room temperature for 100 minutes. Fluorescence output was measured using FLIPR. Compounds were dissolved in DMSO and diluted to desired concentrations with assay buffer. 13.3 μL/well of compound solution was added. The activities of the compounds in the examples have EC50 (effective concentration of compound to afford 50% of the maximum observed fluorescence) values listed in Table I.

T1 sequence (O14842 whole entry): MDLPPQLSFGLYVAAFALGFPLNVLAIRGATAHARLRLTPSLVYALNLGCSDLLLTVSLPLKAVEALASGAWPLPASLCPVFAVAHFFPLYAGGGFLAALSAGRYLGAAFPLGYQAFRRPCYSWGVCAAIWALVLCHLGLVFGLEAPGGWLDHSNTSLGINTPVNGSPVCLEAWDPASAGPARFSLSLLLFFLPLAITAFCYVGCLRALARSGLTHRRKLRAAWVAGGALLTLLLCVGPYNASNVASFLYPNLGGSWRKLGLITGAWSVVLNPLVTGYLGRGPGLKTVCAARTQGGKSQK

Q: CS(=O)(=O)CCCOc1cc(C(F)(F)F)c(-c2ccc(F)c(COc3ccc4c(c3)C[C@H]3[C@H](C(=O)O)[C@@H]43)c2)cn1 [Example 32, (1S,1aS,6aR)-4-((2-fluoro-5-(6-(3-(methylsulfonyl)propoxy)-4-(trifluoromethyl)pyridin-3-yl)benzyl)oxy)-1,1a,6,6a-tetrahydrocyclopropa[a]indene-1-carboxylic acid] was tested. Which EC50 (Human GPR40 [1]) did it give?
A: 5 nM

Q: And the EC50 (Human GPR40 [2])?
A: 20.6 nM

Q: For Cc1nc(OC2CCS(=O)(=O)CC2)ccc1-c1ccc(F)c(C(C)Oc2ccc3c(c2)C[C@H]2[C@H](C(=O)O)[C@@H]32)c1 (stereo partly drawn) [Example 35, (1S,1aS,6aR)-4-(1-(5-(6-((1,1-dioxidotetrahydro-2H-thiopyran-4-yl)oxy)-2-methyl-pyridin-3-yl)-2-fluorophenyl)ethoxy)-1,1a,6,6a-tetrahydrocyclo-propa[a]indene-1-carboxylic acid], which EC50 (Human GPR40 [1]) is on record?
A: 1390 nM

Q: What about the EC50 (Human GPR40 [2]) of the same compound?
A: 77.8 nM

Q: Which results are given for Cc1cc(OCCC2(O)COC2)ncc1-c1ccc(F)c(COc2ccc3c(c2)C[C@H]2[C@H](C(=O)O)[C@@H]32)c1 [Example 30, (1S,1aS,6aR)-4-((2-fluoro-5-(6-(2-(3-hydroxyoxetan-3-yl)ethoxy)-4-methylpyridin-3-yl)benzyl)oxy)-1,1a,6,6a-tetrahydro-cyclopropa[a]indene-1-carboxylic acid]?
A: EC50 (Human GPR40 [1]): 30 nM; EC50 (Human GPR40 [2]): 49.2 nM

Q: Cc1nc(OC2CCS(=O)(=O)CC2)ccc1-c1ccc(F)c(COc2ccc3c(c2)C[C@H]2[C@H](C(=O)O)[C@@H]32)c1 [Example 2, (1S,1aS,6aR)-4-[(5-{6-[(1,1-dioxidotetrahydro-2H-thiopyran-4-yl)oxy]-2-methylpyridin-3-yl)-2-fluorobenzyl]oxy}-1,1a,6,6a-tetrahydrocyclopropa[a]indene-1-carboxylic acid] was tested. Which EC50 (Human GPR40 [1]) did it give?
A: 18.5 nM

Q: And the EC50 (Human GPR40 [2])?
A: 70.2 nM

Q: How did the EC50 (Human GPR40 [1]) turn out when Cc1c(-c2ccc(F)c(COc3ccc4c(c3)C[C@H]3[C@H](C(=O)O)[C@@H]43)c2)ccc2nc(-c3ccncc3)sc12 [Example 52, (1S,1aS,6aR)-4-((2-fluoro-5-(7-methyl-2-(pyridin-4-yl)benzo[d]thiazol-6-yl)benzyl)oxy)-1,1a,6,6a-tetrahydrocyclopropa[a]indene-1-carboxylic acid] was run?
A: 30 nM

Q: And the EC50 (Human GPR40 [2])?
A: 35.4 nM

Q: Which results are given for Cc1nc(N2CC(S(C)(=O)=O)C2)ccc1-c1ccc(F)c(COc2ccc3c(c2)C[C@H]2[C@H](C(=O)O)[C@@H]32)c1 [Example 51, (1S,1aS,6aR)-4-((2-fluoro-5-(2-methyl-6-(3-(methylsulfonyl)azetidin-1-yl)pyridin-3-yl)benzyl)oxy)-1,1a,6,6a-tetrahydrocyclopropa[a]indene-1-carboxylic acid]?
A: EC50 (Human GPR40 [1]): 26.3 nM; EC50 (Human GPR40 [2]): 23.3 nM

Q: Which results are given for Cc1nc(N2CCC(C)(O)CC2)ccc1-c1ccc(F)c(COc2ccc3c(c2)C[C@H]2[C@H](C(=O)O)[C@@H]32)c1 [Example 43, (1S,1aS,6aR)-4-((2-fluoro-5-(6-(4-hydroxy-4-methylpiperidin-1-yl)-2-methylpyridin-3-yl)benzyl)oxy)-1,1a,6,6a-tetrahydrocyclopropa[a]indene-1-carboxylic acid]?
A: EC50 (Human GPR40 [1]): 13 nM; EC50 (Human GPR40 [2]): 75.5 nM

Q: Which results are given for Cc1cc(OCCCS(C)(=O)=O)nc(C)c1-c1cccc(COc2ccc3c(c2)C[C@H]2[C@H](C(=O)O)[C@@H]32)c1 [Example 4, (1S,1aS,6aR)-4-[(3-{2,4-dimethyl-6-[3-(methylsulfonyl)propoxy]pyridin-3-yl}benzyl)oxy]-1,1a,6,6a-tetrahydrocyclopropa[a]indene-1-carboxylic acid]?
A: EC50 (Human GPR40 [1]): 15 nM; EC50 (Human GPR40 [2]): 89.1 nM

Q: Which EC50 (Human GPR40 [1]) does the source give for Cc1nc(OCCCS(C)(=O)=O)ccc1-c1ccc(F)c(COc2ccc3c(c2)C[C@H]2[C@H](C(=O)O)[C@@H]32)c1F [Example 20, 4-(2,6-Difluoro-3-[6-(3-methanesulfonyl-propoxy)-2-methyl-pyridin-3-yl]-benzyloxy)-1,1a,6,6a-tetrahydro-cyclopropa[a]indene-1-carboxylic acid] here?
A: 51.5 nM

Q: What about the EC50 (Human GPR40 [2]) of the same compound?
A: 179 nM
